# Test results reported in PubChem BioAssay (NCI).
#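 Test compounds were applied to cells in 96-well plates for 48 hours at 5 doses. TGI marks complete inhibition of growth.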
# Assays:
# Test in all cases: NCI tumour cell line growth inhibition, 48 h
# 786-0 renal = test system: 786-0 renal
# A549 NSCLC = test system: A549 NSCLC
# ACHN renal = test system: ACHN renal
# CAKI-1 renal = test system: CAKI-1 renal
# CCRF-CEM leukemia = test system: CCRF-CEM leukemia
# COLO 205 colon = test system: COLO 205 colon
# DLD-1 colon = test system: DLD-1 colon
# DMS 273 small cell lung = test system: DMS 273 small cell lung
# EKVX NSCLC = test system: EKVX NSCLC
# HCC-2998 colon = test system: HCC-2998 colon
# HCT-116 colon = test system: HCT-116 colon
# HCT-15 colon = test system: HCT-15 colon
# HL-60(TB) leukemia = test system: HL-60(TB) leukemia
# HOP-18 NSCLC = test system: HOP-18 NSCLC
# HOP-62 NSCLC = test system: HOP-62 NSCLC
# HOP-92 NSCLC = test system: HOP-92 NSCLC
# HT29 colon = test system: HT29 colon
# IGROV1 ovarian = test system: IGROV1 ovarian
# K-562 leukemia = test system: K-562 leukemia
# KM12 colon = test system: KM12 colon
# KM20L2 colon = test system: KM20L2 colon
# LOX IMVI melanoma = test system: LOX IMVI melanoma
# LXFL 529 NSCLC = test system: LXFL 529 NSCLC
# M14 melanoma = test system: M14 melanoma
# M19-MEL melanoma = test system: M19-MEL melanoma
# MOLT-4 leukemia = test system: MOLT-4 leukemia
# NCI-H226 lung = test system: NCI-H226 lung
# NCI-H23 lung = test system: NCI-H23 lung
# NCI-H460 lung = test system: NCI-H460 lung
# NCI-H522 lung = test system: NCI-H522 lung
# OVCAR-3 ovarian = test system: OVCAR-3 ovarian
# OVCAR-4 ovarian = test system: OVCAR-4 ovarian
# OVCAR-5 ovarian = test system: OVCAR-5 ovarian
# OVCAR-8 ovarian = test system: OVCAR-8 ovarian
# RPMI-8226 leukemia = test system: RPMI-8226 leukemia
# RXF 393 renal = test system: RXF 393 renal
# RXF-631 renal = test system: RXF-631 renal
# SF-268 CNS = test system: SF-268 CNS
# SF-295 CNS = test system: SF-295 CNS
# SF-539 CNS = test system: SF-539 CNS
# SK-MEL-2 melanoma = test system: SK-MEL-2 melanoma
# SK-MEL-28 melanoma = test system: SK-MEL-28 melanoma
# SK-MEL-5 melanoma = test system: SK-MEL-5 melanoma
# SK-OV-3 ovarian = test system: SK-OV-3 ovarian
# SN12C renal = test system: SN12C renal
# SNB-19 CNS = test system: SNB-19 CNS
# SNB-75 CNS = test system: SNB-75 CNS
# SNB-78 CNS = test system: SNB-78 CNS
# SR leukemia = test system: SR leukemia
# SW-620 colon = test system: SW-620 colon
# TK-10 renal = test system: TK-10 renal
# U251 CNS = test system: U251 CNS
# UACC-257 melanoma = test system: UACC-257 melanoma
# UACC-62 melanoma = test system: UACC-62 melanoma
# UO-31 renal = test system: UO-31 renal
# XF 498 CNS = test system: XF 498 CNS
# A498 renal = test system: A498 renal
# DMS 114 small cell lung = test system: DMS 114 small cell lung
# MALME-3M melanoma = test system: MALME-3M melanoma
smiles,measurement,setting,value
Cc1ccc(S(=O)(=O)O/N=C2\CCC\C2=C/c2ccccc2)cc1,TGI,786-0 renal,67.9 µM
same,TGI,A549 NSCLC,> 100 µM
same,TGI,ACHN renal,23.3 µM
same,TGI,CAKI-1 renal,36.8 µM
same,TGI,CCRF-CEM leukemia,> 100 µM
same,TGI,COLO 205 colon,29.8 µM
same,TGI,DLD-1 colon,46.3 µM
same,TGI,DMS 273 small cell lung,> 100 µM
same,TGI,EKVX NSCLC,35.3 µM
same,TGI,HCC-2998 colon,31.6 µM
same,TGI,HCT-116 colon,25.3 µM
same,TGI,HCT-15 colon,73.8 µM
same,TGI,HL-60(TB) leukemia,> 100 µM
same,TGI,HOP-18 NSCLC,34.6 µM
same,TGI,HOP-62 NSCLC,> 100 µM
same,TGI,HOP-92 NSCLC,34.5 µM
same,TGI,HT29 colon,60.1 µM
same,TGI,IGROV1 ovarian,> 100 µM
same,TGI,K-562 leukemia,> 100 µM
same,TGI,KM12 colon,32.6 µM
same,TGI,KM20L2 colon,49 µM
same,TGI,LOX IMVI melanoma,> 100 µM
same,TGI,LXFL 529 NSCLC,83.9 µM
same,TGI,M14 melanoma,47.4 µM
same,TGI,M19-MEL melanoma,44.3 µM
same,TGI,MOLT-4 leukemia,29.2 µM
same,TGI,NCI-H226 lung,37.7 µM
same,TGI,NCI-H23 lung,38.9 µM
same,TGI,NCI-H460 lung,47.9 µM
same,TGI,NCI-H522 lung,37.8 µM
same,TGI,OVCAR-3 ovarian,32.8 µM
same,TGI,OVCAR-4 ovarian,58.6 µM
same,TGI,OVCAR-5 ovarian,42.6 µM
same,TGI,OVCAR-8 ovarian,> 100 µM
same,TGI,RPMI-8226 leukemia,37.3 µM
same,TGI,RXF 393 renal,44 µM
same,TGI,RXF-631 renal,36.5 µM
same,TGI,SF-268 CNS,27.7 µM
same,TGI,SF-295 CNS,50.1 µM
same,TGI,SF-539 CNS,43.5 µM
same,TGI,SK-MEL-2 melanoma,30.8 µM
same,TGI,SK-MEL-28 melanoma,24.1 µM
same,TGI,SK-MEL-5 melanoma,28.4 µM
same,TGI,SK-OV-3 ovarian,> 100 µM
same,TGI,SN12C renal,> 100 µM
same,TGI,SNB-19 CNS,> 100 µM
same,TGI,SNB-75 CNS,44.1 µM
same,TGI,SNB-78 CNS,13 µM
same,TGI,SR leukemia,43.4 µM
same,TGI,SW-620 colon,> 100 µM
same,TGI,TK-10 renal,30.4 µM
same,TGI,U251 CNS,88.6 µM
same,TGI,UACC-257 melanoma,31.4 µM
same,TGI,UACC-62 melanoma,27.2 µM
same,TGI,UO-31 renal,42.5 µM
same,TGI,XF 498 CNS,33.3 µM
CCN(C1=CC(=O)NC2CCCCN12)c1ccccc1 (centres undefined),TGI,786-0 renal,> 100 µM
same,TGI,A498 renal,> 100 µM
same,TGI,A549 NSCLC,> 100 µM
same,TGI,ACHN renal,> 100 µM
same,TGI,CAKI-1 renal,> 100 µM
same,TGI,CCRF-CEM leukemia,> 100 µM
same,TGI,COLO 205 colon,> 100 µM
same,TGI,DLD-1 colon,> 100 µM
same,TGI,DMS 114 small cell lung,> 100 µM
same,TGI,DMS 273 small cell lung,> 100 µM
same,TGI,EKVX NSCLC,> 100 µM
same,TGI,HCC-2998 colon,> 100 µM
same,TGI,HCT-116 colon,> 100 µM
same,TGI,HCT-15 colon,> 100 µM
same,TGI,HOP-18 NSCLC,> 100 µM
same,TGI,HOP-62 NSCLC,> 100 µM
same,TGI,HT29 colon,> 100 µM
same,TGI,IGROV1 ovarian,> 100 µM
same,TGI,K-562 leukemia,> 100 µM
same,TGI,KM12 colon,> 100 µM
same,TGI,KM20L2 colon,> 100 µM
same,TGI,LOX IMVI melanoma,> 100 µM
same,TGI,LXFL 529 NSCLC,> 100 µM
same,TGI,M14 melanoma,> 100 µM
same,TGI,M19-MEL melanoma,> 100 µM
same,TGI,MALME-3M melanoma,> 100 µM
same,TGI,MOLT-4 leukemia,> 100 µM
same,TGI,NCI-H23 lung,> 100 µM
same,TGI,NCI-H460 lung,> 100 µM
same,TGI,OVCAR-3 ovarian,> 100 µM
same,TGI,OVCAR-4 ovarian,> 100 µM
same,TGI,OVCAR-5 ovarian,> 100 µM
same,TGI,OVCAR-8 ovarian,> 100 µM
same,TGI,RPMI-8226 leukemia,> 100 µM
same,TGI,RXF 393 renal,> 100 µM
same,TGI,RXF-631 renal,> 100 µM
same,TGI,SF-268 CNS,> 100 µM
same,TGI,SF-295 CNS,> 100 µM
same,TGI,SF-539 CNS,> 100 µM
same,TGI,SK-MEL-2 melanoma,> 100 µM
same,TGI,SK-MEL-28 melanoma,> 100 µM
same,TGI,SK-MEL-5 melanoma,> 100 µM
same,TGI,SK-OV-3 ovarian,> 100 µM
same,TGI,SN12C renal,> 100 µM
same,TGI,SNB-19 CNS,> 100 µM
same,TGI,SNB-75 CNS,> 100 µM
same,TGI,SNB-78 CNS,> 100 µM
same,TGI,SW-620 colon,> 100 µM
same,TGI,TK-10 renal,> 100 µM
same,TGI,U251 CNS,> 100 µM
same,TGI,UACC-257 melanoma,> 100 µM
same,TGI,UACC-62 melanoma,> 100 µM
same,TGI,XF 498 CNS,> 100 µM
